Assay results reported in patent US20050009902A1, “Remedies for pruritus” (priority 2001, published 2005).

Legend:
Type in all cases: in vivo, guinea pig
[1] = system: platelet activating factor (PAF)-induced models; assay: Ocular pruritus inhibition activity to platelet activating factor-induced models; conditions: for Eye scratching inhibition rate: 8 eyes; for Number of eye scratchings in comparison with the controls (in words): instilled suspensions, extent depends approximately on concentration
Method: The ocular pruritus inhibition activity to platelet activating factor (PAF)-induced models was examined using anandamide (test compound A), indometacin morpholinylamide (test compound B) and N-(benzo[d][1,3]dioxol-5-ylmethyl)-7-methoxy-2-oxo-8-penty loxy-1,2-dihydroquinoline-3-carboxamide (test compound C).
Test compound A (50 mg/ml in EtOH) was suspended in a physiological saline at a concentration of 0.01% (w/v). Test compound B was suspended in a 1.0% Tween 80/physiological saline at a concentration of 0.001% or 0.01% (w/v). Test compound C was suspended in a 5.0% Tween 80/physiolosical saline at a concentration of 0.0001%, 0.001% or 0.01% (w/v). In this manner, the test compound suspensions were prepared.
With respect to test compounds A and B, each of the test compound suspensions was instilled into both eyes of a 5-week-old male Hartley guinea pig in 10 μL/one eye. Ten minutes later, each of the test compound suspensions was instilled thereinto at the same concentration (twice in total). With respect to test compound C, the test compound suspension was instilled into both eyes of the 5-week-old male Hartley guinea pig in 10 μL/one eye.
Subsequently, with respect to test compounds A and B, a physiological saline containing 0.1% (w/v) of the platelet activating factor was instilled in 10 μL/one eye into both eyes of the guinea pig after 5 minutes from the second instilling of the respective test compound suspensions. With respect to test compound C, the same physiological saline was instilled in 10 μL/one eye into both eyes of the guinea pig after 15 minutes from the instilling of the test compound suspension. In this manner, the eye scratching action was induced. As controls of test compounds A, B and C, a 2.0% ethanol/physiological saline, a physiological saline and a 5.0% Tween 80/physiological saline were used respectively.
The behavior of the guinea pig after instilling the platelet activating factor was videotaped, and the ocular pruritus was evaluated for each eye by counting the number of actions of scratching the eye with the hind foot. The average value of the eye scratching inhibition rate for 30 minutes after instilling the platelet activating factor is shown in Table 3. In each example, 8 eyes are used.

histamine-induced models = assay: Ocular pruritus inhibition activity to histamine-induced models; conditions: for Number of eye scratchings: 10 μL/one eye, average, 12 eyes, control 22.8; for Number of eye scratchings / Eye scratching inhibition rate: 30 minutes after 1.0% histamine; for Eye scratching inhibition rate: vs physiological saline control
Method: Palmidrol was suspended in a physiological saline at a concentration of 0.1% or 0.5%(w/v), and the resulting suspension was instilled into both eyes of a 5-week-old male Hartley guinea pig in 10 μL/one eye. After 10 minutes, the palmidrol suspension at the same concentration was also instilled thereinto (twice in total). A physiological saline was used as a control.
After 5 minutes from the second instilling of palmidrol, a physiological saline containing 1.0% (w/v) histamine was instilled into both eyes of the guinea pig in 10 μL/one eye to induce eye scratching action.
The behavior of the guinea pig after administering histamine was videotaped, and the ocular pruritus was evaluated on each eye by counting actions of scratching the eye with the hind foot. The average value of the number of eye scratchings for 30 minutes after administering histamine and the eye scratching inhibition rate are shown in Table 1. In each example, 12 eyes are used.
Eye scratching inhibition rate=100−(number of eye scratchings with test compound)/(number of eye scratchings with control)×100

[2] = system: allergic conjunctivitis models; assay: Ocular pruritus inhibition activity to allergic conjunctivitis models; conditions: for Eye scratching inhibition rate: 0.1% (w/v) instilled twice before ovalbumin, 30 minutes, 12 eyes
Method: Aluminum hydroxide gel-adsorbed ovalbumin (20 μg/mL) was dissolved in a physiological saline, and the resulting solution was subconjunctivally injected into both eyes of a 4-week-old male Hartley guinea pig in 100-μL portions for active sensitization. On days 14, 16, 18, 21, 23 and 25 after the sensitization, a physiological saline containing 2.5% (w/v) ovalbumin was instilled into both eyes in 10 μL/one eye to induce allergic conjunctivitis. A physiological saline was used as a control.
Five minutes and 15 minutes (twice in total) before the instilling of ovalbumin on days 16, 18, 21, 23 and 25 after the sensitization, a suspension of 0.1% (w/v) palmidrol in a physiological saline was instilled into both eyes of the guinea pig in 10 μL/one eye.
The behavior of the guinea pig for 30 minutes after the instilling of ovalbumin on days 21, 23 and 25 after the sensitization were videotaped, and the ocular pruritus was evaluated by counting the number of eye scratchings in case of instilling palmidrol and a control. In each example, 12 eyes are used.

[3] = 0.01% (w/v) suspension instilled twice, 30 minutes after 0.1% PAF
[4] = 0.1% (w/v) suspension instilled twice
[5] = 0.5% (w/v) suspension instilled twice

## COc1ccc2c(c1)c(CC(=O)N1CCOCC1)c(C)n2C(=O)c1ccc(Cl)cc1 [Test compound B, indometacin morpholinylamide]
[1]; 0.001% (w/v) suspension instilled twice, 30 minutes after 0.1% PAF
  Eye scratching inhibition rate: 38.7%
[1]; [3]
  Eye scratching inhibition rate: 52.9%
[1]
  Number of eye scratchings in comparison with the controls (in words): markedly decreased

## CCCCCCCCCCCCCCCC(=O)NCCO [Palmidrol, N-palmitoyl-ethanolamide]
histamine-induced models; [4]
  Number of eye scratchings: 8.5 times
  Eye scratching inhibition rate: 62.8%
histamine-induced models; [5]
  Number of eye scratchings: 3.8 times
  Eye scratching inhibition rate: 83.2%
histamine-induced models; instilled 0.1% or 0.5%, extent depends on concentration
  Number of eye scratchings in comparison with the control (in words): markedly decreased
[2]; Day 21 after sensitization
  Eye scratching inhibition rate: 41.5%
[2]; Day 23 after sensitization
  Eye scratching inhibition rate: 52.3%
[2]; Day 25 after sensitization
  Eye scratching inhibition rate: 51.7%
[2]; 0.1% instilled
  Eye scratching action in comparison with the control (in words): significantly inhibited

## CCCCCOc1c(OC)ccc2cc(C(=O)NCc3ccc4c(c3)OCO4)c(=O)[nH]c12 [Test Compound C, N-(benzo[d][1,3]dioxol-5-ylmethyl)-7-methoxy-2-oxo-8-pentyloxy-1,2-dihydroquinoline-3-carboxamide]
[1]; 0.0001% (w/v) suspension instilled once, 15 minutes before 0.1% PAF, 30 minutes
  Eye scratching inhibition rate: 22.7%
[1]; 0.001% (w/v) suspension instilled once, 15 minutes before 0.1% PAF, 30 minutes
  Eye scratching inhibition rate: 34.3%
[1]; 0.01% (w/v) suspension instilled once, 15 minutes before 0.1% PAF, 30 minutes
  Eye scratching inhibition rate: 44.2%
[1]
  Number of eye scratchings in comparison with the controls (in words): markedly decreased

## CCCCC/C=C\C/C=C\C/C=C\C/C=C\CCCC(=O)NCCO [Test compound A, anandamide]
[1]; [3]
  Eye scratching inhibition rate: 40.9%
[1]
  Number of eye scratchings in comparison with the controls (in words): markedly decreased
